Values after ≈ are worked out from the molar mass of the structure shown.
Tested on: S. pneumoniae I UC 41
Experiment: standard microplate test in BHI Agar, MIC
Format: cell-based
Details: Streptococcus pneumoniae, UC41, 37°, 20 hours, read-out: Minimum Inhibitory Concentration
Procedure: The compounds VII, XI, XVβ, XVα and XVI were tested in a standard microplate test in BHI (Brain Heart Infusion) Agar at a concentration of 1 mg./ml. and dilutions thereof at 37° incubation temperature. The end points are read at 20 hours. BHI Agar is supplied by Difco Laboratories, Detroit, Mich., U.S.A. and has the following compositions:
Calf brains, infusion from: 200 gm.
Beef heart, infusion from: 250 gm.
Bacto Proteose-peptone, Difco: 10 gm.
Bacto-Dextrose, Difco: 1 gm.
Disodium phosphate: 2.5 gm.

SMILES: NC[C@H]1O[C@H](O[C@H]2[C@H](O)[C@@H](O)[C@H](N)C[C@@H]2N)[C@H](N)[C@@H](O)[C@@H]1O [Neamine]
- MIC: 62.5 µg/mL (≈ 194 µM)
